Measurements: patent US7622466B2, “Azaindole-2-carboxamide derivatives” (Hoffman-La Roche Inc., priority 2005, dated 2009)

Each molecule was assayed against T1, histamine 3 receptor (H3R) (Homo sapiens, UniProt Q9Y5N1) (assay: Competition binding assay with 3H-(R)α-methylhistamine on membranes of the human HR3-CHO cell line). Conditions: membrane of human HR3-CHO cell line; 3H(R)α-Methylhistamine 1 nM; Ki calculated from IC50 by Cheng-Prusoff equation.
T1 construct: expressed in transfected cells; host or cells: CHO cells (HR3-CHO cell line), membranes
T1 sequence (Q9Y5N1 whole entry): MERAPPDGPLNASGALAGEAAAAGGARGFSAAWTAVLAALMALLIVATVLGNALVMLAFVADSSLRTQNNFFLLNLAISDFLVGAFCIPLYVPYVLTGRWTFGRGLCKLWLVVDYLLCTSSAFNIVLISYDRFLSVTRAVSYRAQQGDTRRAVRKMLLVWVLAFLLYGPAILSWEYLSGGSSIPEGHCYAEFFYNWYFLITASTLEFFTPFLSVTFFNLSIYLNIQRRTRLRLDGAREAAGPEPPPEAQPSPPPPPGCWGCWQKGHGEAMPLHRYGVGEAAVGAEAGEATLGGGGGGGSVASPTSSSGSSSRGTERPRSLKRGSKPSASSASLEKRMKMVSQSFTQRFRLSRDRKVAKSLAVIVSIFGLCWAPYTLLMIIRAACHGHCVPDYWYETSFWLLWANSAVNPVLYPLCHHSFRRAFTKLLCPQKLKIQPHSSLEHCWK
Description: Binding Assay with ^3H-(R)α-methylhistamine
Saturation binding experiments were performed using HR3-CHO membranes prepared as described in Takahashi, K, Tokita, S., Kotani, H. (2003) J. Pharmacol. Exp. Therapeutics 307, 213-218.
An appropriate amount of membrane (60 to 80 μg protein/well) was incubated with increasing concentrations of ^3H(R)α-Methylhistamine di-hydrochloride (0.10 to 10 nM). Non specific binding was determined using a 200 fold excess of cold (R)α-Methylhistamine dihydrobromide (500 nM final concentration). The incubation was carried out at room temperature (in deep-well plates shaking for three hours). The final volume in each well was 250 μl. The incubation was followed by rapid filtration on GF/B filters (pre-soaked with 100 μl of 0.5% PEI in Tris 50 mM shaking at 200 rpm for two hours). The filtration was made using a cell-harvester and the filter plates were then washed five times with ice cold washing buffer containing 0.5 M NaCl. After harvesting, the plates were dried at 55° C. for 60 min, then we added scintillation fluid (Microscint 40, 40 microl in each well) and the amount of radioactivity on the filter was determined in Packard top-counter after shaking the plates for two hours at 200 rpm at room temperature.
Binding Buffer: 50 mM Tris-HCl pH 7.4 and 5 mM MgCl2×6H2O pH 7.4. Washing Buffer: 50 mM Tris-HCl pH 7.4 and 5 mM MgCl2×6H2O and 0.5 M NaCl pH 7.4.
Indirect measurement of affinity of H3R inverse agonists: twelve increasing concentrations (ranging from 10 μM to 0.3 nM) of the selected compounds were always tested in competition binding experiments using membrane of the human HR3-CHO cell line. An appropriate amount of protein, e.g. approximately 500 cpm binding of RAMH at Kd, were incubated for 1 hour at room temperature in 250 μl final volume in 96-well plates in presence of ^3H(R)α-Methylhistamine (1 nM final concentration=Kd). Non-specific binding was determined using a 200 fold excess of cold (R)α-Methylhistamine dihydrobromide.
All compounds were tested at a single concentration in duplicates.

Row | Ki [nM] | Compound
1 | 28.9 | CC(C)N1CCC(Oc2cnc3[nH]c(C(=O)N4CCC(F)(F)CC4)cc3c2)CC1 [Example 13, (4,4-Difluoro-piperidin-1-yl)-[5-(1-isopropyl-piperidin-4-yloxy)-1H-pyrrolo[2,3-b]pyridin-2-yl]-methanone]
2 | 9.4 | CC(C)N1CCC(Oc2cnc3c(c2)cc(C(=O)N2CCC(F)(F)CC2)n3C(C)C)CC1 [Example 22, (4,4-Difluoro-piperidin-1-yl)-[1-isopropyl-5-(1-isopropyl-piperidin-4-yloxy)-1H-pyrrolo[2,3-b]pyridin-2-yl]-methanone]
3 | 25.5 | O=C(c1cc2cc(OCCCN3CCCC3)cnc2[nH]1)N1CCOCC1 [Example 5, Morpholin-4-yl-[5-(3-pyrrolidin-1-yl-propoxy)-1H-pyrrolo[2,3-b]pyridin-2-yl]-methanone]
